Target: T1, Rhodopsin kinase GRK7 (Homo sapiens, UniProt Q8WTQ7)
T1 sequence (Q8WTQ7 whole entry): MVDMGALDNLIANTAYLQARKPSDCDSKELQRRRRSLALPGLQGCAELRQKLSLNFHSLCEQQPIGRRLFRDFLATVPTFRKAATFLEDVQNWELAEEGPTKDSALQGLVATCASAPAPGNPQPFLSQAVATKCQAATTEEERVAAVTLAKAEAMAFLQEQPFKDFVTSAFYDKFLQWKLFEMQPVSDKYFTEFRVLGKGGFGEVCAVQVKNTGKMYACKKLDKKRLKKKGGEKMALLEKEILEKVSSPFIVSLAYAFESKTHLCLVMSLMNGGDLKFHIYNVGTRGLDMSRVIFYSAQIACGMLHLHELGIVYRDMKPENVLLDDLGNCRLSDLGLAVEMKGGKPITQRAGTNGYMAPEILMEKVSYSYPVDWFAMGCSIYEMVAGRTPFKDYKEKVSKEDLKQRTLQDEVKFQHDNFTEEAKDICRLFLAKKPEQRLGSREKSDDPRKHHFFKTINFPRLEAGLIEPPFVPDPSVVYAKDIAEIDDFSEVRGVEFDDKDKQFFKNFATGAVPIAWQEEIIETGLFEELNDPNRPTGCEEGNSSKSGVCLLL
Assay: Inhibition of GRK7-mediated bovine tubulin phosphorylation by scintillation counting

IC50: 180 nM
Structure (SMILES): O=C(N[C@@H]1CNCCC[C@H]1OC(=O)c1cc(O)c(C(=O)c2c(O)cccc2C(=O)O)c(O)c1)c1ccc(O)cc1 [BALANOL]
